Columns and labels:
[1] = tested on: Wnt activity (Sp5-Luc reporter, Wnt-responsive promoter) in SW480 colon carcinoma cells; test: Wnt activity screening assay: Sp5-Luc reporter gene assay in SW480 cells; type: cell-based; settings: Homo sapiens; for EC50: overnight incubation, 10-point curve starting from 10 μM; for inhibition at 10 µM: read-out: percent inhibition at 10 μM (given for EC50 of >10 μM)
Text: The screening assay for Wnt activity is described as follows. Reporter cell lines can be generated by stably transducing cancer cell lines (e.g., colon cancer) or primary cells (e.g., IEC-6 intestinal cells) with a lentiviral construct that includes a Wnt-responsive promoter driving expression of the firefly luciferase gene.
SW480 colon carcinoma cells were transduced with a lentiviral vector expressing luciferase with a human Sp5 promoter consisting of a sequence of eight TCF/LEF binding sites. SW480 cells stably expressing the Sp5-Luc reporter gene and a hygromycin resistance gene were selected by treatment with 150 μg/mL of hygromycin for 7 days. These stably transduced SW480 cells were expanded in cell culture and used for all further screening activities. Each compound was dissolved in DMSO as a 10 mM stock and used to prepare compound source plates. Serial dilution (1:3, 10-point dose-response curves starting from 10 μM) and compound transfer was performed using the ECHO 550 (Labcyte, Sunnyvale, Calif.) into 384-well white solid bottom assay plates (Greiner Bio-One) with appropriate DMSO backfill for a final DMSO concentration of 0.1%. For Sp5-Luc reporter gene assays, the cells were plated at 4,000 cells/well in 384-well plates with medium containing 1% fetal bovine serum and incubated overnight at 37° C. and 5% CO2. Following incubation, 20 μl of BrightGlo luminescence reagent (Promega) was added to each well of the 384-well assay plates. The plates were placed on an orbital shaker for 2 min and then luminescence was quantified using the Envision (Perkin Elmer) plate reader. Readings were normalized to DMSO only treated cells, and normalized activities were utilized for EC50 calculations using the dose-response log (inhibitor) vs. response-variable slope (four parameters) nonlinear regression feature available in GraphPad Prism 5.0 (or Dotmatics). For EC50 of >10 μM, the percent inhibition at 10 μM is provided.

[2] = tested on: primary human fibroblasts derived from IPF patients (LL29 cells) treated with TGF-β1; test: Inhibition of the fibrotic process: αSMA staining in TGF-β1-treated LL29 fibroblasts; type: cell-based; settings: Fibroblast; for EC50: 96 h, LL29 fibroblasts treated with TGF-β1 (20 ng/mL), 4 days, Table 4; for inhibition at 10 µM: LL29 fibroblasts treated with TGF-β1, Table 4, read-out: percent inhibition at 10 μM (given in parentheses for EC50 >10 μM)
Text: Representative compounds were screened using primary human fibroblasts (derived from IPF patients) treated with TGF-β1 to determine their ability to inhibit the fibrotic process.
Human Fibroblast Cell Culture: Primary human fibroblasts derived from IPF patients (LL29 cells) [^1Xiaoqiu Liu, et. al., “Fibrotic Lung Fibroblasts Show Blunted Inhibition by cAMP Due to Deficient cAMP Response Element-Binding Protein Phosphorylation”, Journal of Pharmacology and Experimental Therapeutics (2005), 315(2), 678-687; ^2Watts, K. L., et. al., “RhoA signaling modulates cyclin D1 expression in human lung fibroblasts; implications for idiopathic pulmonary fibrosis”, Respiratory Research (2006), 7(1), 88] were obtained from American Type Culture Collection (ATCC) and expanded in F12 medium supplemented with 15% Fetal Bovine Serum and Penicillin/Streptomycin.
Compound Screening: Each compound was dissolved in DMSO as a 10 mM stock and used to prepare compound source plates. Serial dilution (1:2, 11-point dose-response curves from 10 μM to […]) and compound transfer was performed using the ECHO 550 (Labcyte, Sunnyvale, Calif.) into 384-well clear bottom assay plates (Greiner Bio-One) with appropriate DMSO backfill for a final DMSO concentration of 0.1%. LL29 cells are plated at 1,500 cells/well in 80 μL/well F12 medium supplemented with 1% Fetal Bovine Serum. One hour after addition of the cells, TGF-β1 (Peprotech; 20 ng/mL) was added to the plates to induce fibrosis (ref. 1 and 2 above). Wells treated with TGF-β1 and containing DMSO were used as controls. Cells were incubated at 37° C. and 5% CO2 for 4 days. Following incubation for 4 days, SYTOX green nucleic acid stain (Life Technologies [Thermo Fisher Scientific]) was added to the wells at a final concentration of 1 μM and incubated at room temperature for 30 min. Cells were then fixed using 4% formaldehyde (Electron Microscopy Sciences), washed 3 times with PBS followed by blocking and permeabilization using 3% Bovine Serum Albumin (BSA; Sigma) and 0.3% Triton X-100 (Sigma) in PBS. Cells were then stained with antibody specific to α-smooth muscle actin (αSMA; Abcam) (ref. 1 and 2 above) in 3% Bovine Serum Albumin (BSA; Sigma) and 0.3% Triton X-100 (Sigma) in PBS, and incubated overnight at 4° C. Cells were then washed 3 times with PBS, followed by incubation with Alexa Flor-647 conjugated secondary antibody (Life Technologies [Thermo Fisher Scientific]) and DAPI at room temperature for 1 hour. Cells were then washed 3 times with PBS and plates were sealed for imaging. αSMA staining was imaged by excitation at 630 nm and emission at 665 nm and quantified using the Compartmental Analysis program on the CellInsight CX5 (Thermo Scientific). Dead or apoptotic cells were excluded from analysis based on positive SYTOX green staining. % of total cells positive for αSMA were counted in each well and normalized to the average of 11 wells treated with TGF-β1 on the same plate using Dotmatics' Studies Software. The normalized averages (fold change over untreated) of 3 replicate wells for each compound concentration were used to create dose-responses curves and EC50 values were calculated using non-linear regression curve fit in the Dotmatics' Studies Software. For EC50 of >10 μM, the percent inhibition at 10 μM is provided.

| EC50 [1] [nM] | Structure (SMILES) | EC50 [2] [nM] | inhibition at 10 µM [2] [%] | inhibition at 10 µM [1] [%] |
| --- | --- | --- | --- | --- |
| 2100 | Fc1cccc(-c2cccc3[nH]c(-c4n[nH]c5ccc(-c6cncc(CN7CCC(F)(F)C7)c6)nc45)nc23)c1 [Compound 26, 5-(5-((3,3-Difluoropyrrolidin-1-yl)methyl)pyridin-3-yl)-3-(4-(3-fluorophenyl)-1H-benzo[d]imidazol-2-yl)-1H-pyrazolo[4,3-b]pyridine] | 1650 | – | – |
| 3010 | CC(C)(C)C(=O)Nc1cncc(-c2ccc3[nH]nc(-c4nc5c(-c6ccc(F)cc6)cccc5[nH]4)c3n2)c1 [Compound 36, N-(5-(3-(4-(4-Fluorophenyl)-1H-benzo[d]imidazol-2-yl)-1H-pyrazolo[4,3-b]pyridin-5-yl)pyridin-3-yl)pivalamide] | > 10000 | 33.6 | – |
| 1080 | Fc1ccc(-c2cccc3[nH]c(-c4n[nH]c5ccc(-c6cncc(CN7CCCC7)c6)nc45)nc23)cc1 [Compound 42, 3-(4-(4-Fluorophenyl)-1H-benzo[d]imidazol-2-yl)-5-(5-(pyrrolidin-1-ylmethyl)pyridin-3-yl)-1H-pyrazolo[4,3-b]pyridine] | 3510 | – | – |
| > 10000 | O=C(Nc1cncc(-c2ccc3[nH]nc(-c4nc5c(-c6ccc(F)cc6)cccc5[nH]4)c3n2)c1)C1CCC1 [Compound 49, N-(5-(3-(4-(4-Fluorophenyl)-1H-benzo[d]imidazol-2-yl)-1H-pyrazolo[4,3-b]pyridin-5-yl)pyridin-3-yl)cyclobutanecarboxamide] | > 10000 | 0 | 28.3 |
| > 10000 | Fc1ccc(-c2cccc3[nH]c(-c4n[nH]c5ccc(-c6cncnc6)nc45)nc23)cc1 [Compound 55, 3-(4-(4-Fluorophenyl)-1H-benzo[d]imidazol-2-yl)-5-(pyrimidin-5-yl)-1H-pyrazolo[4,3-b]pyridine] | 3070 | – | 6.5 |
| 1340 | Nc1cncc(-c2ccc3[nH]nc(-c4nc5c(-c6ccccc6F)cccc5[nH]4)c3n2)c1 [Compound 59, 5-(3-(4-(2-Fluorophenyl)-1H-benzo[d]imidazol-2-yl)-1H-pyrazolo[4,3-b]pyridin-5-yl)pyridin-3-amine] | 1390 | – | – |
| 5100 | CC(C)C(=O)Nc1cncc(-c2ccc3[nH]nc(-c4nc5c(-c6ccccc6F)cccc5[nH]4)c3n2)c1 [Compound 65, N-(5-(3-(4-(2-fluorophenyl)-1H-benzo[d]imidazol-2-yl)-1H-pyrazolo[4,3-b]pyridin-5-yl)pyridin-3-yl)isobutyramide] | 4970 | – | – |
| > 10000 | CC(C)(C)CC(=O)Nc1cncc(-c2ccc3[nH]nc(-c4nc5c(-c6ccccc6F)cccc5[nH]4)c3n2)c1 [Compound 72, N-(5-(3-(4-(2-Fluorophenyl)-1H-benzo[d]imidazol-2-yl)-1H-pyrazolo[4,3-b]pyridin-5-yl)pyridin-3-yl)-3,3-dimethylbutanamide] | 2180 | – | 11.6 |
| > 10000 | O=C(Nc1cncc(-c2ccc3[nH]nc(-c4nc5c(-c6ccccc6F)cccc5[nH]4)c3n2)c1)C1CCCC1 [Compound 78, N-(5-(3-(4-(2-Fluorophenyl)-1H-benzo[d]imidazol-2-yl)-1H-pyrazolo[4,3-b]pyridin-5-yl)pyridin-3-yl)cyclopentanecarboxamide] | 2490 | – | 29 |
| 1140 | Fc1ccccc1-c1cccc2[nH]c(-c3n[nH]c4ccc(-c5cncc(CNCC6CCCC6)c5)nc34)nc12 [Compound 81, 1-Cyclopentyl-N-((5-(3-(4-(2-fluorophenyl)-1H-benzo[d]imidazol-2-yl)-1H-pyrazolo[4,3-b]pyridin-5-yl)pyridin-3-yl)methyl)methanamine] | 627 | – | – |
| 2620 | c1cncc(-c2ccc3[nH]nc(-c4nc5c(-c6cccnc6)cccc5[nH]4)c3n2)c1 [Compound 88, 5-(Pyridin-3-yl)-3-(4-(pyridin-3-yl)-1H-benzo[d]imidazol-2-yl)-1H-pyrazolo [4,3-b]pyridine] | > 10000 | 0 | – |
| 3780 | CC(C)C(=O)Nc1cncc(-c2ccc3[nH]nc(-c4nc5c(-c6cccnc6)cccc5[nH]4)c3n2)c1 [Compound 93, N-(5-(3-(4-(Pyridin-3-yl)-1H-benzo[d]imidazol-2-yl)-1H-pyrazolo[4,3-b]pyridin-5-yl)pyridin-3-yl)isobutyramide] | > 10000 | 0 | – |
| 2540 | CC(C)Nc1cncc(-c2ccc3[nH]nc(-c4nc5c(-c6cccnc6)cccc5[nH]4)c3n2)c1 [Compound 96, N-Isopropyl-5-(3-(4-(pyridin-3-yl)-1H-benzo[d]imidazol-2-yl)-1H-pyrazolo [4,3-b]pyridin-5-yl)pyridin-3-amine] | 1210 | – | – |
| 2300 | c1ccc(CNCc2cncc(-c3ccc4[nH]nc(-c5nc6c(-c7cccnc7)cccc6[nH]5)c4n3)c2)cc1 [Compound 108, N-Benzyl-1-(5-(3-(4-(pyridin-3-yl)-1H-benzo[d]imidazol-2-yl)-1H-pyrazolo [4,3-b]pyridin-5-yl)pyridin-3-yl)methanamine] | 2540 | – | – |
| > 10000 | Cc1ccncc1-c1ccc2[nH]nc(-c3nc4c(-c5ccncc5)cccc4[nH]3)c2n1 [Compound 117, 5-(4-Methylpyridin-3-yl)-3-(4-(pyridin-4-yl)-1H-benzo[d]imidazol-2-yl)-1H-pyrazolo[4,3-b]pyridine] | > 10000 | 0 | 44.9 |
| > 10000 | O=C(Cc1ccccc1)Nc1cncc(-c2ccc3[nH]nc(-c4nc5c(-c6ccncc6)cccc5[nH]4)c3n2)c1 [Compound 122, 2-Phenyl-N-(5-(3-(4-(pyridin-4-yl)-1H-benzo[d]imidazol-2-yl)-1H-pyrazolo [4,3-b]pyridin-5-yl)pyridin-3-yl)acetamide] | 4970 | – | 44.4 |
| > 10000 | CCCC(=O)Nc1cncc(-c2ccc3[nH]nc(-c4nc5c(-c6ccncc6)cccc5[nH]4)c3n2)c1 [Compound 129, N-(5-(3-(4-(Pyridin-4-yl)-1H-benzo[d]imidazol-2-yl)-1H-pyrazolo[4,3-b]pyridin-5-yl)pyridin-3-yl)butyramide] | > 10000 | 0 | 0 |
| > 10000 | c1cc(-c2ccncc2)c2nc(-c3n[nH]c4ccc(-c5ccncc5)nc34)[nH]c2c1 [Compound 130, 5-(Pyridin-4-yl)-3-(4-(pyridin-4-yl)-1H-benzo[d]imidazol-2-yl)-1H-pyrazolo [4,3-b]pyridine] | 1070 | – | 39.7 |

From patent US10392383B2, “3-(1H-benzo[d]imidazol-2-yl)-1H-pyrazolo[4,3-b]pyridines and therapeutic uses thereof” (Samumed, LLC, priority 2015, dated 2019)
